# Measurements as given in US10072249B2, “Method of inducing kidney from pluripotent stem cells” (NATIONAL UNIVERSITY CORPORATION KUMAMOTO UNIVERSITY, priority 2013, dated 2018).
# B1: activin: human activin A growth factor (R&D Systems) (protein, UniProt P08476 311-426, looked up)
# Inhibin beta A chain: GLECDGKVNICCKKQFFVSFKDIGWNDWIIAPSGYHANYCEGECPSHIAGTSGSSLSFHSTVINHYRMRGHSPFANLKSCCVPTKLRPMSMLYYDDGQNIIKKDIQNMIVEECGCS
# modifications: Inhibin beta A chain
# B2: Bmp4: human Bmp4 growth factor (R&D Systems) (protein, UniProt P12644 293-408, looked up)
# Bone morphogenetic protein 4: SPKHHSQRARKKNKNCRRHSLYVDFSDVGWNDWIVAPPGYQAFYCHGDCPFPLADHLNSTNHAIVQTLVNSVNSSIPKACCVPTELSAISMLYLDEYDKVVLKNYQEMVVEGCGCR
# Assays:
# [1] = tested on: Osr1-GFP+ cells from the caudal part of E9.5 embryos; experiment: Culture of sorted E9.5 posterior Osr1-GFP+ cell aggregates, then colony-formation assay on Wnt4 feeder cells; type: cell-based, mouse
# Procedure: In vitro colony-formation assays were performed as described previously (Osafune et al., 2006). Briefly, progenitor cells were sorted by a FACS Aria II (Becton Dickinson) and plated onto NIH3T3 cells stably expressing Wnt4 at a low density (1,250-10,000 cells/well of 6-well plates). The cells were then cultured in DMEM/F12 containing 5% knockout serum replacement (Invitrogen), 10 μg/ml insulin, 6.7 μg/1 sodium selenite, 5.5 μg/ml transferrin, 1×10^−7 mol/l dexamethasone, 10 mmol/l nicotinamide, 2 mmol/l L-glutamine, 50 μmol/l 2-mercaptoethanol, 5 mmol/l HEPES and penicillin/streptomycin.
# For embryonic tissue cultures at E8.5, the presomitic regions of 6-10 somite-stage embryos were harvested and T-GFP+ cells were sorted by FACS. The sorted cells were aggregated at 7,000 cells per aggregate in 96-well low-cell-binding plates and cultured in serum-free chemically-defined medium. In the embryonic tissue cultures at E9.5, the posterior regions from the 23rd somite region of 22-26 somite-stage embryos were harvested and Osr1-GFP+ or Wt1-GFP+ cells were sorted by FACS. The sorted cells were aggregated at 10,000 cells per aggregate in 96-well low-cell-binding plates and cultured in serum-free chemically-defined medium.
# Induced cell aggregates from embryonic tissues or ES cells were dissociated by incubation with 0.25% trypsin for 5 min. After blocking in normal mouse serum (Thermo Scientific), cell surface marker staining was carried out in buffer comprising 1% bovine serum albumin, 1×HBSS and 0.035% NaHCO3. Data were analyzed with FlowJo software (Treestar).
# RNA was isolated using an RNeasy Plus Micro Kit (Qiagen), and then reverse-transcribed with random primers and Superscript III (Invitrogen). Quantitative PCR was carried out using a Real-Time PCR System (Applied Biosystems) and Thunderbird SYBR qPCR Mix (Toyobo). All samples were normalized by the β-actin expression using the relative standard curve method.
# To test the hypothesis, Osr1-GFP+ cells from the caudal part of E9.5 embryos were sorted, and were plated into low-cell-binding plates in the presence of the Rho kinase inhibitor Y27632, which supports cell survival. The cells spontaneously re-aggregated and formed spheres within 24 h.
# Osr1-GFP ES cell line = experiment: Induction of metanephric nephron progenitors from mouse ES cells; type: cell-based; conditions: low concentration, 24 h after 2 days of EB formation
# Procedure: Mouse ES cells (Osr1-GFP) were maintained on murine embryonic fibroblasts in DMEM (Invitrogen) supplemented with 15% fetal calf serum, 0.1 mM 2-mercaptoethanol (Nacalai Tesque) and 1,000 U/ml leukemia inhibitory factor (ESGRO). EB3-DsRed cells, gifts from Dr. Hitoshi Niwa (CDB RIKEN), were maintained as reported previously (Usui et al., Am. J. Pathol. 180, 2417-2426, 2012). Before the initiation of differentiation, the ES cells were passaged once onto feeder cell-free gelatin-coated dishes in DMEM (Invitrogen) supplemented with 15% fetal bovine serum, 0.1 mM 2-mercaptoethanol, 1,000 U/ml leukemia inhibitory factor, 3 μM CHIR99021 (Wako) and 1 μM PD0325901 (Wako). ES cell differentiation was carried out in serum-free medium as follows. […]
# RNA was isolated using an RNeasy Plus Micro Kit (Qiagen), and then reverse-transcribed with random primers and Superscript III (Invitrogen). Quantitative PCR was carried out using a Real-Time PCR System (Applied Biosystems) and Thunderbird SYBR qPCR Mix (Toyobo). […]
# [2] = exogenous addition to aggregate culture
molecule,measurement,setting,value
"Cc1c[nH]c(-c2cnc(NCCNc3ccc(C#N)cn3)nc2-c2ccc(Cl)cc2Cl)n1 [CHIR99021, 6-[[2-[[4-(2,4-dichlorophenyl)-5-(4-methyl-1H-imidazol-2-yl)-2-pyrimidinyl]amino]ethyl]amino]nicotinonitrile]",induction of colony-forming progenitors and nephric gene expressions,"[1]; high concentrations, 3 or 10 μM",inhibitory
same,colony formation,"[1]; low concentration, 1 μM",slightly improved
C[C@@H](N)[C@H]1CC[C@H](C(=O)Nc2ccncc2)CC1 [Y27632],"expressions of Pax2, Six2 and Gdnf compared with the starting point",[1]; 48 h of culture of aggregates in low-cell-binding plates,more than 10 fold
same,Osr1+/Itga8+/Pdgfra− population (FACS),[1]; cultured aggregates,10.0±0.01 % of the total cells
B1,induction of colony-forming progenitors and nephric gene expressions,[1]; [2],inhibitory
same,expression of the epiblast marker Fgf5,Osr1-GFP ES cell line,induced transient expression
B2,induction of colony-forming progenitors and nephric gene expressions,[1]; [2],inhibitory
